According to patent publication US8178506B2, “Oligomeric compounds and compositions for use in modulation of small non-coding RNAs” (Regulus Therapeutics Inc., priority 2003, dated 2012):

Test system: preadipocytes / differentiating adipocytes
Assay: Adipocyte differentiation assay, markers taken together
Type: cell-based, human
Details: for 5 markers of adipocyte differentiation / five markers of adipocyte differentiation / expression of the other four hallmark genes (HSL, aP2, Glut4, PPARγ): differentiating adipocytes; for 5 markers of adipocyte differentiation: % of UTC (Table 75); for expression of the other four hallmark genes (HSL, aP2, Glut4, PPARγ): control ISIS 342673; for expression levels of markers of adipocyte differentiation (TG, leptin, aP2, HSL, Glut4, PPARγ): preadipocytes, 250 nM, day nine post-transfection, relative to ISIS-29848
Experimental: Oligomeric compounds of the invention are tested for their effects on preadipocyte differentiation. […] For the other adipocyte differentiation markers assayed, an oligomeric compound targeted to PPAR-γ, also known to inhibit adipocyte differentiation, may be used as a positive control.
Cells are transfected as described herein. […] Untreated control cells receive LIPOFECTIN™ only.
After the cells have reach confluence (approximately three days), they are exposed for an additional three days to differentiation medium (Zen-Bio, Inc., Research Triangle Park, N.C.) containing a PPAR-γ agonist, IBMX, dexamethasone, and insulin. Cells are then fed adipocyte medium (Zen-Bio, Inc.), which is replaced at 2 or 3 day intervals.
For assaying adipocyte differentiation, expression of the four hallmark genes, HSL, aP2, Glut4, and PPARγ, as well as triglyceride (TG) accumulation and leptin secretion were measured in adipocytes transfected with the uniform 2′-MOE phosphorothioate (PS) oligomeric compounds previously described. Cells are lysed on day nine post-transfection, in a guanadinium-containing buffer and total RNA is harvested. Real-time PCR is performed (Applied Biosystems, Prism 7700) on the total RNA using the following primer/probe sets for the adipocyte differentiation hallmark genes: (aP2): forward 5′-GGTGGTGGAATGCGTCATG-3′ (SEQ ID NO: 746), reverse 5′-[…]-3′ (SEQ ID NO: 747), probe 5′-FAM-[…]-TAMRA-3′ (SEQ ID NO: 748); (Glut4): forward 5′-GGCCTCCGCAGGTTCTG-3′ (SEQ ID NO: 749), reverse 5′-[…]-3′ (SEQ ID NO: 750), probe 5′-FAM-[…]-TAMRA-3′ (SEQ ID NO: 751); (HSL): forward 5′-ACCTGCGCACAATGACACA-3′ (SEQ ID NO: 752), reverse 5′-[…]-3′ (SEQ ID NO: 753), probe 5′-FAM-[…]-TAMRA-3′ (SEQ ID NO: 754); (PPAR-γ): forward 5′-[…]-3′ (SEQ ID NO: 755), reverse 5′-[…]-3′ (SEQ ID NO: 756), probe 5′-FAM-[…]-TAMRA-3′ (SEQ ID NO: 757). The amount of total RNA in each sample is determined using a Ribogreen Assay (Molecular Probes, Eugene, Oreg.), and expression levels of the adipocyte differentiation hallmark genes were normalized to total RNA. Leptin protein and triglyceride levels as well as mRNA levels for each of the four adipocyte differentiation hallmark genes are expressed relative to control levels (control=treatment with ISIS-29848 (SEQ ID NO: 737)).
In some embodiments, differentiating adipocytes were treated with uniform 2′-MOE phosphorothioate oligomeric compounds according to the methods described above, and the expression of the four hallmark genes, HSL, aP2, Glut4, and PPARγ, as well as triglyceride (TG) accumulation were measured. […] Undifferentiated adipocytes were also compared as a negative control. […] The effects of TNF-α, also known to inhibit adipocyte differentiation, were also measured.

For “ISIS 344340: SEQ ID NO: 1921, targeted to mir-140 (antisense UGUCCGUGGUUCUACCCUGUGGUA; all 2'-MOE, all phosphorothioate, methylation of C and T or U not given here)”, the “5 markers of adipocyte differentiation” value was “significantly reduce the expression levels of 3 of the 5 markers of adipocyte differentiation”.

With “CCCAACAACATGAAACTACCTA (chemistry not given here) [ISIS 327909, uniform 2′-MOE PS; targets mir-196-2]” the “five markers of adipocyte differentiation” value (% of UTC (Table 55)) was “increase in three of the five markers of adipocyte differentiation”.

For “GTCTGTCAATTCATAGGTCAT (chemistry not given here) [ISIS 327960, uniform 2′-MOE PS; targets mir-215]”, the “five markers of adipocyte differentiation” value (% of UTC (Table 55)) was “reduce the expression levels of all five markers of adipocyte differentiation”.

“ISIS 340352: SEQ ID NO: 1821, targeted to mir-99 (Mourelatos) (CACAAGAUCGGAUCUACGGGUU; all 2'-MOE, all phosphorothioate, methylation of C and T or U not given here)” was tested, and the “5 markers of adipocyte differentiation” value was “increases in 4 of the 5 markers of adipocyte differentiation”.

In the case of “ACTCACCGACAGCGTTGAATGTT (chemistry not given here) [ISIS 327904, uniform 2′-MOE PS; targets mir-181a]”, the “five markers of adipocyte differentiation” value (% of UTC (Table 55)) is reported as “reduce the expression levels of all five markers of adipocyte differentiation”.

With “TCCACAAAGCTGAACATGTCT (anti-miR; chemistry not fully specified) [ISIS 328117, uniform 2′-MOE PS; targets hypothetical miRNA-144]” the “expression of the other four hallmark genes (HSL, aP2, Glut4, PPARγ)” value was “reduction of expression of the other four hallmark genes”.

With “AACTACTTCCAGAGCAGGTGA (anti-miR; chemistry not fully specified) [ISIS 328136, uniform 2′-MOE PS; targets hypothetical miRNA-181]” the “expression of the other four hallmark genes (HSL, aP2, Glut4, PPARγ)” value was “reduction of expression of the other four hallmark genes”.

With “CCATCTTTACCAGACAGTGTT (anti-miR; chemistry not fully specified) [ISIS 327942, uniform 2′-MOE PS; targets mir-141]” the “expression levels of markers of adipocyte differentiation (TG, leptin, aP2, HSL, Glut4, PPARγ)” value was “significantly reduce the expression levels of 5 of 6 markers of adipocyte differentiation”.

With “ISIS 346685: SEQ ID NO: 1884, targeted to mir-27 (Mourelatos) (antisense GGCGGAACUUAGCCACUGUGAA; all 2'-MOE, all phosphorothioate, methylation of C and T or U not given here)” the “5 markers of adipocyte differentiation” value was “significant increases in all 5 markers of adipocyte differentiation”.

With “ISIS 344615: SEQ ID NO: 1900, targeted to mir-244* (Kosik) (antisense UCAACAAAAUCACUGAUGCUGGA; all 2'-MOE, all phosphorothioate, methylation of C and T or U not given here)” the “5 markers of adipocyte differentiation” value was “significant increases in all 5 markers of adipocyte differentiation”.

In the case of “ATGACTACAAGTTTATGGCCA (chemistry not given here) [ISIS 328121, uniform 2′-MOE PS; targets hypothetical miRNA-161]”, the “5 markers of adipocyte differentiation” value is reported as “significant increases in all 5 markers of adipocyte differentiation” and the “five markers of adipocyte differentiation” value (control ISIS 342673 (Tables 17, 18)) is reported as “increase in all five markers of adipocyte differentiation”.

“CCAAGTGTTAGAGCAAGATCA (anti-miR; chemistry not fully specified) [ISIS 328126, uniform 2′-MOE PS; targets hypothetical miRNA-170]” was tested, and the “5 markers of adipocyte differentiation” value was “increases in 4 of the 5 markers of adipocyte differentiation”.

With “AACACTGATTTCAAATGGTGCTA (anti-miR; chemistry not fully specified) [ISIS 327876, uniform 2′-MOE PS; targets mir-29b-1]” the “expression levels of markers of adipocyte differentiation (TG, leptin, aP2, HSL, Glut4, PPARγ)” value was “reduce the expression of several hallmark genes of adipocyte differentiation”.
